According to patent US10493153B2, “Alkylated photoremovable protecting groups and uses thereof” (Iowa State University Research Foundation, Inc., priority 2018, dated 2019):

Tests used:
Assay type in all cases: physicochemical
[1] = Quantum yield and quantum efficiency of photorelease on irradiation; conditions: for εΦ (quantum efficiency): product of extinction coefficient and quantum yield; for Φ (quantum yield): solutions in methanol, λirr 365, 490, 507 nm
Method: A solution of the given compound (3.0 mL) in a matched 1.0 cm quartz PTFE screw-cap fluorescence cuvette equipped with a stir bar was irradiated with a light source (32 LEDs emitting at the selected wavelength: λmax=365, 490, 507 nm; the bandwidths at half height=30 nm; high-pressure 450 W mercury-xenon arc lamp with a monochromator with 200-1600 nm grating set to 365±0.5 nm). The reaction progress was monitored by UV-vis spectrometry using a diode-array spectrophotometer in a kinetic mode.
Photodegradation quantum yields for both aerated and degassed (freeze-pump-thaw technique; 3 cycles) solutions in methanol were determined at λirr=365 (LEDs and mercury-xenon arc lamp), 490 nm (LEDs), and 507 nm (LEDs) with xanthene-9-carboxylic acidl and BODIPY-CORM2 as actinometers; most values were cross-checked using ferrioxalate3 at λirr=365 nm. The data were processed using single value decomposition (SVD) software assuming the first-order rate law. The amount of absorbed light was calculated from the whole emission spectrum of the light source. […] All quantum yield measurements were repeated at least 6 times with independently prepared samples.
(§1) The observed substrate release rate as a function of photolysis time is quantified by the quantum efficiency parameter (εϕ), which is the product of the extinction coefficient at the irradiation wavelength (E) and the quantum yield (ϕ). Extinction coefficients for compounds 1-7 were determined by UV-Vis spectroscopy (see Table 1).

[2] = UV-Vis absorption spectroscopy (absorption maximum, extinction coefficient); conditions: for λmax: absorption maximum, UV-vis; for ε (extinction coefficient): determined by UV-Vis spectroscopy, in M-1cm-1 (unit assumed)
Source text: (§2) All manipulation with photosensitive samples were accomplished under the red light (λ>600 nm). In the spectroscopy measurements, the lowest possible intensity of incident light was used; the spectroscopic identity of the samples was confirmed after each measurement to ensure that no unwanted photodegradation processes occurred. All measurements were accomplished using fresh solutions prepared in the dark. ^1H and ^13C NMR spectra were obtained in CDCl3 on 101, 125, 400 and 500 MHz spectrometers. ^1H chemical shifts are reported in ppm relative to the tetramethylsilane signal (TMS, δ=0.00 ppm), using the residual solvent signal as an internal reference. ^13C NMR chemical shifts are reported in ppm relative to the CDCl3 signal as an internal standard. IR spectra were recorded on an FTIR spectrophotometer. Mass spectra (MS) and high resolution mass spectra (HRMS) were recorded using an ESI and APCI techniques. Absorption spectra and the molar absorption coefficients were obtained on a UV-vis spectrometer with matched 1.0-cm quartz cells. […] A nanosecond flash lamp (filled with H2) was used to determine the fluorescence lifetimes. The data obtained were deconvolved from the measured decay curves of the sample and the instrumental response function. The quantum yields of fluorescence were obtained using a calibrated integration sphere.
as §1

[3] = Fluorescence emission spectroscopy; conditions: emission maximum
Source text: as §2

Compound	εΦ (quantum efficiency) [1]	Φ (quantum yield) [1]	λmax [2] [nm]	ε (extinction coefficient) [2]	λem [3] [nm]
CC1=CC(C)=[N+]2C1=C(CCl)c1c(C)cc(C)n1[B-]2(C)C [Compound 1, 4,4′-Dimethyl-8-chloromethyl-1,3,5,7-tetramethyl-4-bora-3a,4a-diaza-s-indacene]	41,194 M^−1cm^−1	0.68	519	60,580	556
2,6-Diiodo-4,4′-dimethyl-8-chloro ethyl-1,3,5,7-tetramethyl-4-bora-3a,4a-diaza-s-indacene [Compound 5]	59,280 M^−1cm^−1	0.95	542	62,400	573
CC1=C(I)C(C)=[N+]2C1=C(COC(=O)Cc1ccccc1)c1c(C)c(I)c(C)n1[B-]2(C)C [Compound 6, 2,6-Diiodo-4,4′-dimethyl-8-methyl-(2-phenylacetate)-1,3,5,7-tetramethyl-4-bora-3a,4a-diaza-s-indacene]	16,996 M^−1cm^−1	0.28	538	60,700	572
CC1=CC(C)=[N+]2C1=C(COC(=O)Cc1ccccc1)c1c(C)cc(C)n1[B-]2(C)C [Compound 2, 4,4′-Dimethyl-8-methyl(2-phenylacetate)-1,3,5,7-tetramethyl-4-bora-3a,4a-diaza-s-indacene]	7,398 M^−1cm^−1	0.11	512	68,500	550
CC1=CC(C)=[N+]2C1=C(COC(=O)Cc1ccccc1)c1c(C)cc(C)n1[B-]2(c1ccccc1)c1ccccc1 [Compound 4, 4,4′-Diphenyl-8-methyl-(2-phenylacetate)-1,3,5,7-tetramethyl-4-bora-3a,4a-diaza-s-indacene]	583 M⁻¹ cm⁻¹	0.01	517	58,300	562
CC[B-]1(CC)n2c(C)cc(C)c2C(COC(=O)Cc2ccccc2)=C2C(C)=CC(C)=[N+]21 [Compound 3, 4,4′-Diethyl-8-methyl-(2-phenylacetate)-1,3,5,7-tetramethyl-4-bora-3a,4a-diaza-s-indacene]	4,424 M^−1cm^−1	0.08	513	55,300	550
